Results on 21 compounds are retold here after US12172983B2, “EGFR inhibitors” (Blueprint Medicines Corporation, priority 2019, dated 2024).

In assay [1] the test system is phosphorylation of EGFR (Tyr1068) in NCI-H1975 cell line that harbors the EGFR L858R T790M mutations. The assay is described as follows: NCI-H1975 pEGFR AlphaLISA assay. The assay is classed as cell-based. The note with it: Homo sapiens, NCI-H1975, inhibition of phosphorylation of mutant EGFR in NCI-H1975 cells; 4-5 hours incubation; read-out: Ext pEGFR H1975. A digest of the protocol: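 Phospho-EGFR Tyr1068 AlphaLISA readout: lysates taken from compound-treated H1975 cells (L858R T790M EGFR) after a 4-5 h exposure at 37 °C. Cells had adhered overnight beforehand. IC50 derived by plotting % pEGFR inhibition against log compound concentration.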
On the technique in general: In Alpha technology, singlet oxygen from a donor bead excites a nearby acceptor bead.

The target in the next assay is T1, EGFR (L858R T790M C797S) (Homo sapiens, UniProt P00533, C797S/L858R/T790M).
T1 construct: purchased SignalChem E10-122VG
The assay can be described thus: Biochemical EGFR inhibition assay (Caliper mobility shift), EGFR LRTMCS mutant. The note with it: inhibitory activity against EGFR LRTMCS mutant; apparent IC50; read-out: Ext Enz LRTMCS. In outline: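 Kinase reactions at 25 °C run to 10–20% peptide phosphorylation, stopped with 35 mM EDTA. Phosphorylated product and substrate separated electrophoretically by mobility shift. Apparent IC50 from percent activity versus log compound concentration.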

T1 sequence (P00533 25-1210 T790M/C797S/L858R): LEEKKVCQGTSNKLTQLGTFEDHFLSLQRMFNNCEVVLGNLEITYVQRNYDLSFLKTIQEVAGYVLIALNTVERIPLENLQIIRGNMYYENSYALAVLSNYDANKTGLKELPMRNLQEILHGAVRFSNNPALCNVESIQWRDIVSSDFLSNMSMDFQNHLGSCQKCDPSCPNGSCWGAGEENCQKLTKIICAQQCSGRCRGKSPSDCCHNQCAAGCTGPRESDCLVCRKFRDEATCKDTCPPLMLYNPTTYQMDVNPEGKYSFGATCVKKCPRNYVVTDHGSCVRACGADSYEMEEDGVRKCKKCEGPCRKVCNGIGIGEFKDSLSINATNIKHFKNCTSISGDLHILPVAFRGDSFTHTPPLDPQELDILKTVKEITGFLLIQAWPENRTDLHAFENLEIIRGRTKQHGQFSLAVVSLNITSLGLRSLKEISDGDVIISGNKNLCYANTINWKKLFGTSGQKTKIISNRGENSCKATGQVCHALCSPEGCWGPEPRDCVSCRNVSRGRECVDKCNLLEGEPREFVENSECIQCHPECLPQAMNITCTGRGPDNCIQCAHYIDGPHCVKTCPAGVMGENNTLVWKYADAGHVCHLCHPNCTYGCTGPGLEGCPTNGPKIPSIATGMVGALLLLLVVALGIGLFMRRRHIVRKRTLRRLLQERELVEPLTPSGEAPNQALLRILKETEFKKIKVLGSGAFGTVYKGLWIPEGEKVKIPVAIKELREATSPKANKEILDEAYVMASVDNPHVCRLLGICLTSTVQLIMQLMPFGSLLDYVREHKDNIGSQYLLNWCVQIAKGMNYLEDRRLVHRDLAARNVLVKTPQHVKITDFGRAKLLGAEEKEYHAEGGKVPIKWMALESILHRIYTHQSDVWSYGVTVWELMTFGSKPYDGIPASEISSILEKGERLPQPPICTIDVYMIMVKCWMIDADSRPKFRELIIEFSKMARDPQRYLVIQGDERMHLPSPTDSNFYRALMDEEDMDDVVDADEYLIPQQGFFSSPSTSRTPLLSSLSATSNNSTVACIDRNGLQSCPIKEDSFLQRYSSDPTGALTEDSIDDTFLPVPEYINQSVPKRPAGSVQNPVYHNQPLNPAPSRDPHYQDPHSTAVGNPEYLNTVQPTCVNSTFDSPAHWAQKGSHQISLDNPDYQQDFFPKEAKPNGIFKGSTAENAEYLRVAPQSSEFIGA

Consider `CC(C)c1ccc(N2CC(CS(C)(=O)=O)C2)c2cnc(Nc3ccnc(N4C[C@H]5CC[C@@H](C4)[C@@H]5O)n3)cc12` [Compound 39, Rac (1R,5S,8S)-3-[4-({8-[3-(methanesulfonylmethyl)azetidin-1-yl]-5-(propan-2-yl)isoquinolin-3-yl}amino)pyrimidin-2-yl]-3-azabicyclo[3.2.1]octan-8-ol], for which the IC50 in assay [1] is 30.1 to 50 nM; at EGFR (L858R T790M C797S), not above 15 nM.

`CC(C)c1ccc(N2CC(CS(C)(=O)=O)C2)c2cnc(Nc3cnnc(N4CCC5(CCO5)CC4)n3)cc12` [Compound 42, 8-[3-(methanesulfonylmethyl)azetidin-1-yl]-N-(3-{1-oxa-7-azaspiro[3.5]nonan-7-yl}-1,2,4-triazin-5-yl)-5-(propan-2-yl)isoquinolin-3-amine]: the IC50 was 10.1 to 20 nM in assay [1] and not above 15 nM on EGFR (L858R T790M C797S).

As for `COC1CCN(c2nccc(Nc3cc4c(C(C)C)cnc(N5C[C@H](CS(C)(=O)=O)[C@H]5C)c4cn3)n2)CC1` [Compound 50, 8-[(2R,3S)-3-(methanesulfonylmethyl)-2-methylazetidin-1-yl]-N-[2-(4-methoxypiperidin-1-yl)pyrimidin-4-yl]-5-(propan-2-yl)-2,7-naphthyridin-3-amine], the IC50 is not above 10 nM in assay [1] and not above 15 nM on EGFR (L858R T790M C797S).

With `CC(C)c1ccc(N2C[C@H](CS(C)(=O)=O)[C@H]2C)c2cnc(Nc3ccnc(N4CC[C@@H](O)[C@@H](F)C4)n3)cc12` [Compound 62, (3S,4R)-3-fluoro-1-(4-((5-isopropyl-8-((2R,3S)-2-methyl-3-((methylsulfonyl)methyl)azetidin-1-yl)isoquinolin-3-yl)amino)pyrimidin-2-yl)piperidin-4-ol], the IC50 in assay [1] was not above 10 nM; at EGFR (L858R T790M C797S) it was not above 15 nM.

For `CO[C@H]1CCN(c2nccc(Nc3cc4c(C(C)C)ccc(N5CC(CS(C)(=O)=O)C5)c4cn3)n2)C[C@H]1F` [Compound 63, N-(2-((3R,4S)-3-fluoro-4-methoxypiperidin-1-yl)pyrimidin-4-yl)-5-isopropyl-8-(3-(methylsulfonylmethyl)azetidin-1-yl)isoquinolin-3-amine], the results for the IC50 (in assay [1]; on EGFR (L858R T790M C797S)) were not above 10 nM and not above 15 nM, respectively.

Turning to `CO[C@@H]1CCN(c2nccc(Nc3cc4c(C(C)C)ccc(N5CC(CS(C)(=O)=O)C5)c4cn3)n2)C[C@@H]1F` [Compound 64, N-(2-((3S,4R)-3-fluoro-4-methoxypiperidin-1-yl)pyrimidin-4-yl)-5-isopropyl-8-(3-(methylsulfonylmethyl)azetidin-1-yl)isoquinolin-3-amine], the figures for the IC50 (in assay [1]; at EGFR (L858R T790M C797S)) were not above 10 nM and not above 15 nM, respectively.

With `CO[C@H]1CCN(c2nccc(Nc3cc4c(C(C)C)cnc(N5CC(CS(C)(=O)=O)C5)c4cn3)n2)C[C@H]1F` [Compound 71, N-{2-[(3R,4S)-3-fluoro-4-methoxypiperidin-1-yl]pyrimidin-4-yl}-8-[3-(methanesulfonylmethyl)azetidin-1-yl]-5-(propan-2-yl)-2,7-naphthyridin-3-amine], the IC50 in assay [1] was not above 10 nM; at EGFR (L858R T790M C797S), not above 15 nM.

For the compound `CO[C@@H]1CCN(c2nccc(Nc3cc4c(C(C)C)cnc(N5CC(CS(C)(=O)=O)C5)c4cn3)n2)C[C@@H]1F` [Compound 72, N-{2-[(3S,4R)-3-fluoro-4-methoxypiperidin-1-yl]pyrimidin-4-yl}-8-[3-(methanesulfonylmethyl)azetidin-1-yl]-5-(propan-2-yl)-2,7-naphthyridin-3-amine], the results for the IC50 (in assay [1]; on EGFR (L858R T790M C797S)) were not above 10 nM and not above 15 nM, respectively.

`CO[C@H]1CCN(c2nccc(Nc3cc4c(C(C)C)ncc(N5CC(CS(C)(=O)=O)C5)c4cn3)n2)C[C@H]1F` [Compound 73, N-{2-[(3R,4S)-3-fluoro-4-methoxypiperidin-1-yl]pyrimidin-4-yl}-8-[3-(methanesulfonylmethyl)azetidin-1-yl]-5-(propan-2-yl)-2,6-naphthyridin-3-amine]: the IC50 in assay [1] was not above 10 nM; on EGFR (L858R T790M C797S) it was not above 15 nM.

In the case of `CO[C@@H]1CCN(c2nccc(Nc3cc4c(C(C)C)ncc(N5CC(CS(C)(=O)=O)C5)c4cn3)n2)C[C@@H]1F` [Compound 74, N-{2-[(3S,4R)-3-fluoro-4-methoxypiperidin-1-yl]pyrimidin-4-yl}-8-[3-(methanesulfonylmethyl)azetidin-1-yl]-5-(propan-2-yl)-2,6-naphthyridin-3-amine], the IC50 in assay [1] was not above 10 nM; at EGFR (L858R T790M C797S), not above 15 nM.

As to `CO[C@@H]1CCN(c2nncc(Nc3cc4c(C(C)C)ccc(N5CC(CS(C)(=O)=O)C5)c4cn3)n2)C[C@@H]1F` [Compound 75, N-{3-[(3S,4R)-3-fluoro-4-methoxypiperidin-1-yl]-1,2,4-triazin-5-yl}-8-[3-(methanesulfonylmethyl)azetidin-1-yl]-5-(propan-2-yl)isoquinolin-3-amine], the IC50 in assay [1] is not above 10 nM; at EGFR (L858R T790M C797S) it was not above 15 nM.

As for `CO[C@H]1CCN(c2nncc(Nc3cc4c(C(C)C)ccc(N5CC(CS(C)(=O)=O)C5)c4cn3)n2)C[C@H]1F` [Compound 76, N-{3-[(3R,4S)-3-fluoro-4-methoxypiperidin-1-yl]-1,2,4-triazin-5-yl}-8-[3-(methanesulfonylmethyl)azetidin-1-yl]-5-(propan-2-yl)isoquinolin-3-amine], the values for the IC50 (in assay [1]; on EGFR (L858R T790M C797S)) were not above 10 nM and not above 15 nM, respectively.

As to `CCS(=O)(=O)C[C@H]1CN(c2ccc(F)c3cc(Nc4ccnc(N5CC[C@@H](OC)[C@@H](F)C5)n4)ncc23)[C@@H]1C` [Compound 85, 8-[(2R,3S)-3-[(ethanesulfonyl)methyl]-2-methylazetidin-1-yl]-5-fluoro-N-{2-[(3S,4R)-3-fluoro-4-methoxypiperidin-1-yl]pyrimidin-4-yl}isoquinolin-3-amine], the IC50 in assay [1] is 10.1 to 20 nM; at EGFR (L858R T790M C797S) it was not above 15 nM.

Take `CC(C)c1ccc(N2CC(CS(C)(=O)=O)C2)c2cnc(Nc3ccnc(N4CCC5(CC4)OCCO5)n3)cc12` [Compound 88, N-(2-{1,4-dioxa-8-azaspiro[4.5]decan-8-yl}pyrimidin-4-yl)-8-[3-(methanesulfonylmethyl)azetidin-1-yl]-5-(propan-2-yl)isoquinolin-3-amine]: the figures for the IC50 (in assay [1]; at EGFR (L858R T790M C797S)) were 20.1 to 30 nM and not above 15 nM, respectively.

On to `CO[C@H]1CCN(c2nccc(Nc3cc4c(C(C)C)cnc(N5C[C@H](CS(C)(=O)=O)[C@H]5C)c4cn3)n2)C[C@H]1F` [Compound 131, N-{2-[(3R,4S)-3-fluoro-4-methoxypiperidin-1-yl]pyrimidin-4-yl}-8-[(2R,3S)-3-(methanesulfonylmethyl)-2-methylazetidin-1-yl]-5-(propan-2-yl)-2,7-naphthyridin-3-amine], for which the IC50 was not above 10 nM in assay [1] and not above 15 nM at EGFR (L858R T790M C797S).

With `CO[C@@H]1CCN(c2nccc(Nc3cc4c(C(C)C)cnc(N5C[C@H](CS(C)(=O)=O)[C@H]5C)c4cn3)n2)C[C@@H]1F` [Compound 132, N-{2-[(3S,4R)-3-fluoro-4-methoxypiperidin-1-yl]pyrimidin-4-yl}-8-[(2R,3S)-3-(methanesulfonylmethyl)-2-methylazetidin-1-yl]-5-(propan-2-yl)-2,7-naphthyridin-3-amine], the IC50 in assay [1] is not above 10 nM; at EGFR (L858R T790M C797S), not above 15 nM.

For `CO[C@H]1CCN(c2nncc(Nc3cc4c(C(C)C)ccc(N5C[C@H](CS(C)(=O)=O)[C@H]5C)c4cn3)n2)C[C@H]1F` [Compound 133, N-{3-[(3R,4S)-3-fluoro-4-methoxypiperidin-1-yl]-1,2,4-triazin-5-yl}-8-[(2R,3S)-3-(methanesulfonylmethyl)-2-methylazetidin-1-yl]-5-(propan-2-yl)isoquinolin-3-amine], the IC50 in assay [1] is not above 10 nM; at EGFR (L858R T790M C797S), not above 15 nM.

As to `CO[C@@H]1CCN(c2nncc(Nc3cc4c(C(C)C)ccc(N5C[C@H](CS(C)(=O)=O)[C@H]5C)c4cn3)n2)C[C@@H]1F` [Compound 134, N-(3-((3S,4R)-3-fluoro-4-methoxypiperidin-1-yl)-1,2,4-triazin-5-yl)-5-isopropyl-8-((2R,3S)-2-methyl-3-(methylsulfonylmethyl)azetidin-1-yl)isoquinolin-3-amine], the results for the IC50 (in assay [1]; at EGFR (L858R T790M C797S)) were not above 10 nM and not above 15 nM, respectively.

With `CO[C@@H]1CCN(c2nccc(Nc3cc4c(C(C)C)ncc(N5C[C@H](CS(C)(=O)=O)[C@H]5C)c4cn3)n2)C[C@@H]1F` [Compound 139, N-{2-[(3S,4R)-3-fluoro-4-methoxypiperidin-1-yl]pyrimidin-4-yl}-8-[(2R,3S)-3-(methanesulfonylmethyl)-2-methylazetidin-1-yl]-5-(propan-2-yl)-2,6-naphthyridin-3-amine], the IC50 in assay [1] was not above 10 nM; on EGFR (L858R T790M C797S), not above 15 nM.

For the compound `CO[C@H]1CCN(c2nccc(Nc3cc4c(C(C)C)ncc(N5C[C@H](CS(C)(=O)=O)[C@H]5C)c4cn3)n2)C[C@H]1F` [Compound 140, N-{2-[(3R,4S)-3-fluoro-4-methoxypiperidin-1-yl]pyrimidin-4-yl}-8-[(2R,3S)-3-(methanesulfonylmethyl)-2-methylazetidin-1-yl]-5-(propan-2-yl)-2,6-naphthyridin-3-amine], the IC50 is not above 10 nM in assay [1] and not above 15 nM on EGFR (L858R T790M C797S).

For the compound `CO[C@@H]1CCN(c2nccc(Nc3cc4c(C(C)C)ncc(N5CC(CS(C)(=O)=O)C5)c4cn3)n2)C[C@]1(C)F` [Compound 144, N-{2-[(3S,4R)-3-fluoro-4-methoxy-3-methylpiperidin-1-yl]pyrimidin-4-yl}-8-[3-(methanesulfonylmethyl)azetidin-1-yl]-5-(propan-2-yl)-2,6-naphthyridin-3-amine], the IC50 is not above 10 nM in assay [1] and not above 15 nM at EGFR (L858R T790M C797S).
